Reference: US6262095A, “Use of tricyclic derivatives of 1,4-dihydro-1,4-dioxo-1H-naphthalene, novel compounds obtained and their application in theraphy” (Laboratoire Innothera, priority 1995, dated 2001)
pEC50: −log10 of the molar value.

Legend:
[1] = system: septic shock in rats; assay: Septic shock induced by LPS in rats; assay type: in vivo; conditions: rat, 28 mg/kg i.v. bolus 5 min before induction of septic shock, compared to control group
Description: The activity in septic shock is studied in rats after the induction of the shock by an intravenous injection in the bolus of a lipopolysaccharide endotoxin (LPS: 15 mg/kg) of E. col, in a method similar to that described by Terashita et al., Eur. J. Pharmacol., 1985, Vol. 109: pp. 257-261. The arterial pressures are measured as a function of time and comparatively between treated groups and control groups (excipient alone). The compounds are administered intravenously or orally, 5 min or 2 h, respectively, before the injection of LPS.

[2] = system: saphenous vein in rabbits; assay: Potentiation of the contractile response of the rabbit saphenous vein to electrical stimulation; assay type: cell-based; conditions: Oryctolagus cuniculus, read-out: increase of contractile response due to electrical stimulation
Description: (§1) The contractile effects are measured in vitro under static conditions on vascular capacitance or resistance rings of saphenous, femoral, jugular, mesenteric, and caval veins . . . and on femoral, carotid, basilar, or mesenteric arteries, as well as the thoracic or abdominal aorta . . . in rats (Wistar, 200-250 g), rabbits (New Zealand, 2-2.5 kg), guinea pigs (Dunkin Hartley 250-300 g).
(§2) The rings are placed in a chamber for isolated organs (25 mL for capacitance vessels and 2.5 mL for resistance vessels according to Mulvany), and maintained under isometric conditions using two rigid threads inserted inside the vessel, avoiding causing damage to the endothelium. The vessels are bathed in a modified Krebs solution (in mM: NaCl=118; KCl=4.6; CaCl2 =2.5; MgSO4 =1.2; KH2 PO4 =1.17; NaHCO3 =25; glucose=11), continuously aerated using a gaseous mixture of 95% O2 and 5% Co2, at a pH=7.4, and regulated by thermostat at 37° C. The rings are adjusted to their optimal point as far as the tension-length relationship is concerned. […] The pharmacological studies are carried out after a few standardized preliminary contractile stimulations using a depolarizing solution (hyperpotassic type obtained by replacing NaCl with KCl in equimolar quantities), along with rinsings and periods of equilibration in a pure physiological solution. […]

[3] = system: dorsal cutaneous chamber in hamsters; assay: Dorsal cutaneous chamber in hamsters (microcirculation, histamine); assay type: in vivo; conditions: hamster, 28 mg/kg i.v. bolus, after histamine 1 mg/kg i.v.
Description: (§3) In the conscious animal, the arterial pressures are measured according to the classical method derived from Riva Rocci, by the analysis of the acoustical wave transmitted at the arterial level and transformed by a ceramic piezo transducer placed on the tail of the rat, downstream from a sleeve that is automatically inflated by a pressure generator. At the microcirculatory level, the variations in the sections of the veinules and arterioles are studied in vivo in the model of the dorsal cutaneous chamber of conscious hamsters, after a video microscopic recording (microscope Leitz Ergolux equipped with a halogen source for the illumination and its black-and-white CD video camera HPR 610) and computer analysis (software Visicap, Pack ICAP) of the images.
After anesthesia with sodium pentobarbital (60 mg/kg in i.p. administration), the back of the animal is shaved and hair is pulled so as to be able to put an observation chamber (Professor Gebhard, Heidelberg) on the back skin. The two parts of this chamber are sewn after careful removal of a certain level of skin thicknesses, which can impede the observation. A jugular catheter is placed for the i.v. administration of the products, 48 h after the operation.
The effect of the compounds on the hyperpermeability induced by inflammatory agents, such as histamine and bradykinin, is also studied after intravenous injection in a bolus in the model of the dorsal cutaneous chamber of hamsters and according to the method developed by Gimeno et al., described earlier ("A new technique using intravital videomicroscopy for macromolecular permeability measurement," 18th European Congress on Microcirculation, Rome, 1994) using videomicroscopy and image analysis by quantification of the distribution of the intra- and extravascular fluorescence of the fluorescent marker (FITC-Dextran) injected in a bolus through the jugular catheter (63 mg/kg for a volume defined at 1 mL/kg). The microscope is equipped with a fluorescence source and a combination of filters (excitation in the blue range 450-490 nm, and 515-nm stop filter).

[4] = system: saphenous vein in rabbits; assay: Potentiation of the contractile response of the rabbit saphenous vein to noradrenaline; assay type: cell-based
Description: as §1, §2

[5] = system: carotid arteries of rats; assay: Contraction of rat carotid arteries under depolarizing hyperpotassic conditions; assay type: cell-based; conditions: pH 7.4, read-out: ED50 (contraction)
Description: as §1, §2

[6] = system: saphenous vein in rabbits; assay: Potentiation of the contractile response of the rabbit saphenous vein to serotonin; assay type: cell-based
Description: as §1, §2

[7] = system: arterial pressure of the conscious rat; assay: Arterial pressure of the conscious rat; assay type: in vivo; conditions: oral 0.1-5-50 mg/kg
Description: as §3

[8] = system: capillary resistance of rats; assay: Capillary resistance of rats after oral administration (petechial index); assay type: in vivo, rat (Wistar); conditions: rat
Description: The increase in the capillary resistance is evaluated by the modification of the petechial index (negative pressure inducing the extravasation of the erythrocytes), measured by a method derived from the angiosterrometer of Parrot.
The studies are carried out on male Wistar rats with an average weight of 200 g (approximate age six weeks). The bottom area of the back is shorn, then the hair is pulled by means of a paste based on a derivative of thioglycolic acid and calcium hydroxide. After approximately 30 min, the skin is abundantly rinsed and dried.
On the day of the study, the rats are maintained without constraint. A low pressure of 80 mm of mercury is applied. If the petechiae (extravasation of erythrocytes) have not appeared within 15 sec, the low pressure is increased as a countermeasure, keeping the suction cap at the same place.
The minimum low pressure where petechias appear, in mm of mercury, expresses the basal capillary resistance (before any treatment). Two measurements are made for each test at different sites on of the back.
The rats are treated by the oral route. […] All the measurements are done in the blind mode.
A percentage of variation in the capillary resistances of the animals treated compared to their basal capillary resistance is calculated for each compound studied, at each treatment time and compared with the control group (excipient only) or the reference group.

For `O=C1c2ccccc2C(=O)c2sc(-c3ccco3)nc21` [Example n, 4,9-Dihydro-4,9-dioxo-2-(2-furyl)-naphtho[2,3-d]thiazole], which “increase of average arterial pressure” value [1] is on record?
The value was 20 mm of mercury.

What about the activation at 0.3 µM [2] of the same compound?
The activation at 0.3 µM was 200%.

What about the arteriolar diameter [3] of the same compound?
Its arteriolar diameter is “not the arteriolar diameter”.

And the histamine-induced vascular hyperpermeability [3]?
The histamine-induced vascular hyperpermeability was “reduces the vascular hyperpermeability”.

And the veinule diameter [3]?
Its veinule diameter is “reduces the veinule diameter”.

And the “change of noradrenaline ED50” value [4]?
The value was “reduced by a factor of ten”.

And the Emax ([4]; Oryctolagus cuniculus, read-out: increase of noradrenaline Emax)?
The Emax was 30%.

What about the pEC50 [5] of the same compound?
Its pEC50 is 6.52.

What about the “contractile response due to serotonin” value [6] of the same compound?
The value was “selectively potentiates”.

What about the arterial pressure [7] of the same compound?
The arterial pressure was “does not affect the arterial pressure”.

What about the “correlation of duration of action with plasma concentrations” value [8] of the same compound?
Its value is “correlates with its measured plasma concentrations”.

And the “dose dependence of oral effect on capillary resistance” value [8]?
Its value is “dose dependent over a broad range of doses”.

What about the “duration of action on capillary resistance” value [8] of the same compound?
The value was “at least 6 h”.

And the “Increase of capillary resistance, effects after 4 h” value ([8]; 0.1 mg/kg, 4 h, * granulometry: 0.5-0.6 mm)?
The value was 45 % of the control.

And the “Increase of capillary resistance, effect after 6 h” value ([8]; 0.1 mg/kg, 6 h, * granulometry: 0.5-0.6 mm)?
The value was 45 % of the control.
